# How the values were obtained:
# [1] = system: CDNR4 cells; format: cell-based, murine
# Procedure: Following the cessation of the calibrated stress conditions exposure, the SR assay raw data is collected in the form of positive and negative wells (or cell growth sites) and in the form of viable or dead cell clones. The next steps of the assay involve expanding viable clones and determining their phenotypes. When the phenotype of interest being investigated in the SR assay is cell survival, the clones can be sub-classified using the testing listed in Table 6. This testing is performed as follows. Clones are removed from the tissue culture vessels in which they were placed before the start of the calibrated stress conditions exposure (using methods appropriate for the cell type), and subdivided into 4 different aliquots. Each aliquot is re-plated in an appropriate tissue culture vessel in medium containing the following. For one aliquot, the medium is growth medium (conditioned medium may be used) only; for a second aliquot the medium is supplemented with guanosine or folic acid at a concentration sufficient to enhance the survival and expansion of HPRT^− clones; for a third aliquot, the medium contains the same level of agent as used for the calibrated stress condition exposure, and the fourth aliquot is placed in HAT-medium containing an amount of aminopterin that is sufficient to induce growth arrest and/or cell death in Phen-HPRT^− cells of the cell type of interest (see above). Cell morphology (where informative for cell behavior and/or gene expression) and cell growth are monitored over the next 2, to 4 days to determine the response of the cells to these differing conditions. Cell clones can be subjected to additional testing as desired to evaluate further endpoints of interest and/or can be cryopreserved for future evaluations.
# To subgroup Phen-ah clones as Phen-alt-rev or Phen-alt-irr, a representative group of these clones is tested further by subjecting the clones to repeated rounds of exposure to the calibrated stress conditions. Other stress inducing agents also may be used. Each exposure cycle is followed by a period of time to allow the cells to recover, and thus, to resolve the stress environment. After each exposure round, the percentage of cells that are resistant to the stress inducing agent or condition is recorded. […] The parental cell response that has been used in the examples below is defined as greater than 99% sensitivity to the calibrated stress conditions agent or condition, as evidenced by cell cycle arrest and/or cell death following exposure to the SR induction agent. Other stress response endpoints may be used and will depend upon the nature of the stress inducing agent used; these endpoints are incorporated herein.
# The murine mammary epithelial cells designated CDNR4 were grown in their preferred growth medium (42% DMEM, 42% Hams F-12, 12% FBS, 1% 100×L-glutamine, 1% pen-strep, 0.5% to 1% bovine pituitary extract) until approximately 6 million cells were available. Cells were removed from the expansion flasks, counted, and replated at a rate of 500,000 cells per […] flask in growth medium. The flasks were assigned randomly to one of two groups: a vehicle-alone exposure (control group); an ENU-exposure (treated) group. […] For group 1 flasks, a volume of growth medium equal to the volume of ENU was added to the flasks. The cells were exposed to this solution for 1 hour at 37° C.; at the end of this time the solution was removed, the cells were washed with PBS at 37° C., and the cells were re-fed with fresh growth medium.
# At the end of 2 weeks, the cells were removed from the flasks with trypsin/EDTA and passed through a 20 to 25 micron pore size sterile Nytran filter. The cell suspension was evaluated by light microscopy for evidence of large clumps, and was re-filtered if necessary using a new sterile Nytran filter of the same size to remove any apparent large clumps of cells. […]
# [2] = system: immortalized human bronchial epithelial cell line #1; experiment: Determination of the SRID-10% dose of 6-TG, cell line #1; format: cell-based; conditions: 600 to 1000 cells per well, 96 well plates
# Procedure: (§1) Two immortalized, human bronchial epithelial cells lines were expanded in their preferred growth medium and plated at the rate of 600 to 1000 cells per well in tissue culture wells of 96 well plates. Both cell lines were immortalized using hTERT technology. The cells were exposed to variable 6-TG concentrations that ranged up to 150 micrograms/ml 6-TG. For cell line #1; the SRID-10% dose of 6-TG was determined to be 110 micrograms/ml; for cell line #2 the SRID-10% dose of 6-TG was determined to be 60 micrograms/ml 6-TG. The mCE of cell line #1 was 41%; for cell line #2 it was 25%. Thus, the total pro-survival pathway functionality for cell line #1 was […] (0.41×110 microgms/ml 6-TG); for cell line #2 this value was calculated to be 15.
# [3] = system: CDNR4 cells; experiment: Determination of the SRID-50% level of 6-TG (calibrated stress conditions); format: cell-based, murine
# Procedure: The calibrated stress conditions and the SRID-x % level are determined ideally using parental, control, or vehicle-exposed cells. This portion of the assay requires that several variables, including cell plating density, calibrated stress conditions level, and duration of stress conditions exposure be optimized simultaneously. These variables are interdependent such that each affects the outcome of the other, thereby making this portion of the assay one of the most critical. To achieve high sensitivity for detection of assay endpoints, it is important that the maximum number of cells be evaluated; however, optimal calibrated stress conditions are achieved at relatively low cell plating densities. In addition, cell plating densities and the SKID-x % level of stress inducing agent chosen for use in the assay must be such that fewer than one positive endpoint per well occurs in the assay. Using cell survival as an example, if multiple surviving cell clones are identified in the same well(s) during an experiment, then the cell plating density must be reduced and/or the SRID-x % level must be increased so that the frequency of occurrence of surviving clones is reduced to less than one per well. Thus, optimization of these variables is necessary.
# Pilot studies that evaluate a range of cell plating densities and a range of calibrated stress conditions levels for the stress inducing agent of choice are used and are applied to untreated, control or parental cells. It is advisable to use a low plating density that results in rapid expression of stress resolution pathways (within 3 to 4 days where possible), or as quickly as possible after calibrated stress conditions exposure. In spite of potentially significant differences between cells of different types from different tissues and from different species, preliminary results from the SR assay support the conclusion that the optimal plating density for many cell types falls within a predictable range. […] These values can serve as starting points for empirical determination of the optimal cell plating density for the cells of interest to be used in the assay.
# After estimating the optimal cell plating density, dose response curves are generated for the calibrated stress conditions agent of interest. For experiments in which cell survival is the phenotype of interest, work with the assay completed to date supports the conclusion that calibrated stress conditions levels that reduce expression of pro-survival pathways to a level that results in survival of one or fewer clones in 50% of the wells of a 96 well plate (defined as the SRID-50%) is the optimal level for assessment of damage avoidance pro-survival pathways. Use of these levels also results in a sufficiently robust expression of damage tolerance paths to make it possible to evaluate differences or changes in expression of these pathways between cell types and/or between differing exogenous exposures. Because cell plating density and level of calibrated stress inducing agent are inter-dependent, it may be necessary to perform several pilot studies using differing cell plating densities and a range of stress-response inducing levels to find the optimal combination of use with the cell type of interest in the assay.
# There are two limits associated with Poisson distribution principles that must be considered in selecting the SRID-x % level of stress inducing agent. First, stress induction levels that result in a response frequency, for the response type of interest, that is near or equal to 100% of the sites being evaluated should be avoided and the same considerations are true for stress induction levels resulting in responses frequencies near or equal to 0%. The SR assay cannot accurately quantify response frequencies near 100% or near 0%, and this limitation forms the one of the factors affecting the selection of the SRID-x % level. […]
# [4] = system: immortalized human bronchial epithelial cell line #2; experiment: Determination of the SRID-10% dose of 6-TG, cell line #2; format: cell-based; conditions: 600 to 1000 cells per well, 96 well plates
# Procedure: as §1
Structure (SMILES),SR assay results with MNU as pre-exposure agent in place of ENU ([1]; compared with the ENU experiments),SRID-10% dose of 6-TG [2] [micrograms/ml],time to cell cycle arrest of all cells after start of 6-TG exposure ([3]; 6TG 1 to 100 micrograms/ml) [h],"SRID-50% (1 viable clone in approximately 50% of wells of a 96-well plate) ([3]; CDNR4 cells, low plating density, 6-TG for four days) [µg/mL]","SRID-50% ([3]; vehicle-exposed/parental CDNR4 cells, 500-600 cells per well of 96 well plate, 6-TG for four days) [micrograms/ml]","death of the cells during SR induction phase ([1]; 6TG 30 micrograms/ml, one to 3 days after start, 600 cells per well)","cell death after the end of SR induction phase ([1]; two to 3 days after 4 days of 6TG 30 micrograms/ml, all plates) [%]",SRID-10% dose of 6-TG [4] [micrograms/ml 6-TG]
"CN(N=O)C(N)=O [MNU, methylnitrosourea]",similar,,,,,,,
"Nc1nc2nc[nH]c2c(=S)[nH]1 [6-TG, 6-thioguanine]",,110,≤ 24,35,35,greater than 90%,~100,60

# Reference: patent US20130040291A1, “Detection and Quantification of Cellular Stress Response Resolution Pathway Expression and Functionality and the Effects of Agents or Conditions Thereupon” (priority 2011, published 2013)
